Experiments:
Assay type in all cases: in vivo
Phytophthora infestans = settings: tomatoes (cultivar Rutgers), sprayed to run off at 100 ppm, inoculated after 24 hours
Puccinia recondita = assay: Brown Rust (PUCCRT), protectant spray test on wheat seedlings; settings: wheat (cultivar Monon), sprayed to run off at 100 ppm, inoculated after 24 hours
Leptosphaeria nodorum = assay: Glume Blotch of Wheat (LEPTNO), protectant spray test on wheat seedlings; settings: wheat (cultivar Monon), sprayed to run off at 100 ppm, inoculated after 24 hours
Erysiphe graminis = assay: Powdery Mildew of Wheat (ERYSGT), protectant spray test on wheat seedlings; settings: wheat (cultivar Monon), sprayed to run off at 100 ppm, inoculated after 24 hours

Compound	PHYTIN control of plant disease (Phytophthora infestans)	PUCCRT control of plant disease (Puccinia recondita)	LEPTNO control of plant disease (Leptosphaeria nodorum)	ERYSGT control of plant disease (Erysiphe graminis)
CNC(=O)C(=NOC)c1ccccc1COc1ncc(C(OC2CCCCO2)c2ccccc2)cc1Cl (mixture of isomers) [Example 57]	++ (++ = 75-100% control of plant disease)	++ (++ = 75-100% control of plant disease)	++ (++ = 75-100% control of plant disease)	++ (++ = 75-100% control of plant disease)
CNC(=O)C(=NOC)c1ccccc1COc1ncc(C(O)c2ccccc2)cc1Cl (racemic) [Example 1]	++ (++ = 75-100% control of plant disease)	++ (++ = 75-100% control of plant disease)	++ (++ = 75-100% control of plant disease)	++ (++ = 75-100% control of plant disease)
CNC(=O)C(=NOC)c1ccccc1COc1ncc(C(O)c2ccc(C)cc2C)cc1Cl (racemic) [Example 6]	++ (++ = 75-100% control of plant disease)	++ (++ = 75-100% control of plant disease)	− (− = 0-24% control of plant disease)	++ (++ = 75-100% control of plant disease)
CNC(=O)C(=NOC)c1ccccc1COc1ncc(C(O)c2ccc(F)cc2)cc1Cl (racemic) [Example 7]	++ (++ = 75-100% control of plant disease)	++ (++ = 75-100% control of plant disease)	++ (++ = 75-100% control of plant disease)	++ (++ = 75-100% control of plant disease)
CNC(=O)C(=NOC)c1ccccc1COc1ncc(C(O)c2ccc(Cl)cc2)cc1Cl (racemic) [Example 9]	++ (++ = 75-100% control of plant disease)	++ (++ = 75-100% control of plant disease)	++ (++ = 75-100% control of plant disease)	++ (++ = 75-100% control of plant disease)
CNC(=O)C(=NOC)c1ccccc1COc1ncc(C(O)c2ccc(C(C)(C)C)cc2)cc1Cl (racemic) [Example 10]	++ (++ = 75-100% control of plant disease)	++ (++ = 75-100% control of plant disease)	++ (++ = 75-100% control of plant disease)	++ (++ = 75-100% control of plant disease)
CNC(=O)C(=NOC)c1ccccc1COc1ncc(C(O)c2cccc(C(F)(F)F)c2)cc1Cl (racemic) [Example 12]	++ (++ = 75-100% control of plant disease)	++ (++ = 75-100% control of plant disease)	++ (++ = 75-100% control of plant disease)	++ (++ = 75-100% control of plant disease)
CNC(=O)C(=NOC)c1ccccc1COc1ncc(C(C)OCc2ccc(OC)cc2)cc1Cl (racemic) [Example 17]	− (− = 0-24% control of plant disease)	++ (++ = 75-100% control of plant disease)	++ (++ = 75-100% control of plant disease)	++ (++ = 75-100% control of plant disease)
CNC(=O)C(=NOC)c1ccccc1COc1ncc(C(C)OC(=O)C(C)(C)C)cc1Cl (racemic) [Example 24]	− (− = 0-24% control of plant disease)	++ (++ = 75-100% control of plant disease)	++ (++ = 75-100% control of plant disease)	++ (++ = 75-100% control of plant disease)
CNC(=O)C(=NOC)c1ccccc1COc1ncc(C(C)(O)c2ccccc2)cc1Cl (racemic) [Example 26]	++ (++ = 75-100% control of plant disease)	++ (++ = 75-100% control of plant disease)	++ (++ = 75-100% control of plant disease)	++ (++ = 75-100% control of plant disease)
CNC(=O)C(=NOC)c1ccccc1COc1ncc(C(C)OCc2ccc(Cl)cc2)cc1Cl (racemic) [Example 27]	− (− = 0-24% control of plant disease)	++ (++ = 75-100% control of plant disease)	++ (++ = 75-100% control of plant disease)	++ (++ = 75-100% control of plant disease)
CNC(=O)C(=NOC)c1ccccc1COc1ncc(C(OC(C)=O)c2ccccc2)cc1Cl (racemic) [Example 28]	− (− = 0-24% control of plant disease)	++ (++ = 75-100% control of plant disease)	++ (++ = 75-100% control of plant disease)	− (− = 0-24% control of plant disease)
CNC(=O)C(=NOC)c1ccccc1COc1ncc(C(OC(=O)c2ccccc2)c2ccccc2)cc1Cl (racemic) [Example 29]	+ (+ = 25-74% control of plant disease)	++ (++ = 75-100% control of plant disease)	++ (++ = 75-100% control of plant disease)	+ (+ = 25-74% control of plant disease)
CNC(=O)C(=NOC)c1ccccc1COc1ncc(C(OC(=O)C(C)(C)C)c2ccccc2)cc1Cl (racemic) [Example 30]	++ (++ = 75-100% control of plant disease)	++ (++ = 75-100% control of plant disease)	++ (++ = 75-100% control of plant disease)	+ (+ = 25-74% control of plant disease)
CNC(=O)C(=NOC)c1ccccc1COc1ncc(C(OC(=O)C(C)C)c2ccccc2)cc1Cl (racemic) [Example 32]	− (− = 0-24% control of plant disease)	++ (++ = 75-100% control of plant disease)	− (− = 0-24% control of plant disease)	− (− = 0-24% control of plant disease)
CCOC(=O)OC(c1ccccc1)c1cnc(OCc2ccccc2C(=NOC)C(=O)NC)c(Cl)c1 (racemic) [Example 33]	++ (++ = 75-100% control of plant disease)	++ (++ = 75-100% control of plant disease)	++ (++ = 75-100% control of plant disease)	+ (+ = 25-74% control of plant disease)
CNC(=O)C(=NOC)c1ccccc1COc1ncc(C(C)(OC)c2ccccc2)cc1Cl (racemic) [Example 35]	− (− = 0-24% control of plant disease)	++ (++ = 75-100% control of plant disease)	++ (++ = 75-100% control of plant disease)	++ (++ = 75-100% control of plant disease)
CCC(=O)OC(c1ccccc1)c1cnc(OCc2ccccc2C(=NOC)C(=O)NC)c(Cl)c1 (racemic) [Example 36]	++ (++ = 75-100% control of plant disease)	++ (++ = 75-100% control of plant disease)	++ (++ = 75-100% control of plant disease)	+ (+ = 25-74% control of plant disease)
CNC(=O)C(=NOC)c1ccccc1COc1ncc(C(OC(=O)C(F)(F)F)c2ccccc2)cc1Cl (racemic) [Example 37]	++ (++ = 75-100% control of plant disease)	++ (++ = 75-100% control of plant disease)	++ (++ = 75-100% control of plant disease)	+ (+ = 25-74% control of plant disease)
CNC(=O)C(=NOC)c1ccccc1COc1ncc(C(OC)c2ccccc2)cc1Cl (racemic) [Example 38]	− (− = 0-24% control of plant disease)	++ (++ = 75-100% control of plant disease)	++ (++ = 75-100% control of plant disease)	+ (+ = 25-74% control of plant disease)
CNC(=O)C(=NOC)c1ccccc1COc1ncc(C(C)O)cc1Cl (racemic) [Example 40]	+ (+ = 25-74% control of plant disease)	++ (++ = 75-100% control of plant disease)	++ (++ = 75-100% control of plant disease)	+ (+ = 25-74% control of plant disease)
CCCCCOC(C)c1cnc(OCc2ccccc2C(=NOC)C(=O)NC)c(Cl)c1 (racemic) [Example 41]	− (− = 0-24% control of plant disease)	++ (++ = 75-100% control of plant disease)	++ (++ = 75-100% control of plant disease)	++ (++ = 75-100% control of plant disease)
CCC(O)(c1ccccc1)c1cnc(OCc2ccccc2C(=NOC)C(=O)NC)c(Cl)c1 (racemic) [Example 42]	++ (++ = 75-100% control of plant disease)	++ (++ = 75-100% control of plant disease)	++ (++ = 75-100% control of plant disease)	++ (++ = 75-100% control of plant disease)
CNC(=O)C(=NOC)c1ccccc1COc1ncc(C(O)C(C)C)cc1Cl (racemic) [Example 43]	++ (++ = 75-100% control of plant disease)	++ (++ = 75-100% control of plant disease)	+ (+ = 25-74% control of plant disease)	++ (++ = 75-100% control of plant disease)
CNC(=O)C(=NOC)c1ccccc1COc1ncc(C(OC(C)=O)c2ccsc2)cc1Cl (stereo not shown) [Example 121]	++ (++ = 75-100% control of plant disease)	–	–	++ (++ = 75-100% control of plant disease)
CCOC(C)(c1ccccc1)c1cnc(OCc2ccccc2C(=NOC)C(=O)NC)c(Cl)c1 (stereo not shown) [Example 122]	− (− = 0-24% control of plant disease)	–	–	++ (++ = 75-100% control of plant disease)
